Data set [1] is described as follows: Nanofiber self-assembly and morphology (TEM). The format is physicochemical. The settings on record: in the salts (pH = 7). How it is done: CP^64-83-Q11 nanofiber synthesis and characteristics
Q11, CP^64-83, and CP^64-83-Q11 peptides were synthesized and purified by Genecreate Co. (Wuhan). […] The morphology of the CP^64-83-Q11 was determined by transmission electron microscopy (TEM) using a Hitachi Model H-7700 microscope (Hitachi, Japan). The particle size of reassembled CP^64-83-Q11 was determined using a Zetasizer (nano ZS90, Malvern Panalytical, UK). The secondary structure of CP^64-83-Q11 nanovaccine was analyzed by circular dichroism (CD) spectra (Chirascan V100, Applied Photophysics, UK).

In a further data set the test system is grouper. The data set can be described thus: In vivo safety: survival, weight and pathology of vaccinated grouper. To be noted: i.p. 2 mM, 28-day period. As to the method: NNV-free pearl gentian grouper (Epinephelus lanceolatus × Epinephelus fuscoguttatus) juveniles (5.12 ± 0.63 g) were purchased from a commercial fish farm (Wenchang, Hainan, China). Real-time quantitative polymerase chain reaction (qPCR) was used to detect NNV in purchased fish. Primers of NNVdetection F: […] and NNVdetection R: […] were used for NNV detection. Grouper were reared in a recirculating water system with filtered seawater at 28.0 ± 1.0°C. Each tank contains 50 L seawater with continuous aeration. Fish were fed twice daily and acclimated for 15 days before experiments.
Safety evaluation of the CP^64-83-Q11 nanofiber
The safety evaluation of the synthesized nanofiber was assessed using in vitro and in vivo models. For the in vitro cytotoxicity evaluation, the standard MTT assay was employed. GF-1 cells and grouper macrophages were seeded into 96-well plates at a density of 5 × 10⁵ cells per well. These cells were then exposed to varying concentrations (1, 5, 10, 20, and 40 µg/mL) of Q11, CP^64-83, CP, or CP^64-83-Q11 for 24 h. […] Absorbance was then measured at 490 nm using a microplate reader. Cell viability was calculated as follows: Cell viability = (ODtreatment group − ODblank)/(ODcontrol group − ODblank) × 100%. […] Additionally, the initial and final weights of the fish were monitored throughout the 28-day period.

Marks after values point to notes of the source that are not given here.

Regarding “QQKFQFQFEQQ [Q11, Q11 peptide (…), a minimalist self-assembling motif]”, the self-assembly into nanofibers entry in data set [1] is “could self-assemble into nanofibers in the salts (pH = 7)”. For the same sequence, the Survival rate in the data set with grouper (unchallenged vaccinated grouper, 78 fish per group, all groups incl. control share letter a) is 98.26 ± 3.37^a %. The Final weight with grouper (vaccinated grouper, initial weight 5.12 ± 0.63 g, all groups incl. control (8.96 ± 1.02) share letter a) is reported as 8.72 ± 0.56^a g.

Values taken from publication PMC12363211, “Rationally designed self-assembled peptide nanofibers provoke robust humoral immunity against nervous necrosis virus” (Journal of Virology, 2025).
